This passage reports GI50 and TGI results from PubChem BioAssay (NCI).

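These data come from cells grown in 96-well plates and exposed to compound for 48 hours at five concentrations. GI50 is the concentration that inhibits growth by half. At the TGI there is no net growth.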

Experiment in all cases: NCI-60 cell line screen, 48 h
The test system of test [1] is KM12 colon.
The subject of test [2] is LOX IMVI melanoma.
Test [3] has as its system MALME-3M melanoma.
For test [4], the system named is NCI-H522 lung.
Test [5] relates to OVCAR-3 ovarian.
Test [6] has as its system SNB-75 CNS.
In test [7] the test system is T-47D breast.
Test [8] relates to UACC-257 melanoma.
The test system of test [9] is UACC-62 melanoma.
The subject of test [10] is UO-31 renal.

As for `Cc1ccc2[nH]c(C(=O)NN3C(=O)C(C)SC34CCC(C)CC4)c(-c3ccccc3)c2c1` (stereo not drawn), the GI50 in test [1] is 15.4 µM; in test [2] it was 18 µM; in test [3], 17 µM; in [4], 13 µM; in test [5], 11.8 µM; in [6], 24.4 µM. For the same molecule, the GI50 is 19.4 µM in [7], 19.1 µM in test [8], 11.8 µM in test [9] and 14 µM in test [10]. The TGI in test [1] amounted to 35.2 µM; in [2], 34.8 µM; in [3], 33.4 µM; in test [4], 31.1 µM; in test [5], 27.3 µM; in [6], 51.4 µM. The TGI came out at 85.7 µM in test [7], 44.5 µM in test [8], 25.6 µM in [9] and 29.4 µM in test [10].

Regarding `COc1ccc2nc3c(cc2c1)C(=O)CC(c1ccccc1)C3` (stereo not drawn), the GI50 is 0.469 µM in test [1]; 1.33 µM in test [2]; 0.432 µM in test [3]; 0.401 µM in test [4]; 1.4 µM in [5]; 0.181 µM in test [6]. The GI50 in test [7] was 5.34 µM; in [8], over 100 µM; in test [9], 0.601 µM; in test [10] it was 0.589 µM. Further, the TGI in [1] was over 100 µM; in [2] it was over 100 µM; in [3], over 100 µM; in test [4], over 67.4 µM; in test [5], 10.4 µM; in test [6], over 100 µM. The TGI in test [7], in [8], in [9] and in test [10] was over 100 µM each time.

For the molecule `O=c1cc(-c2ccccc2)oc2c1ccc1ccccc12`, the GI50 in test [1] was 24.9 µM; in [2], 21.9 µM; in test [3] it was 29.1 µM; in test [4] it was 30.5 µM; in [5], 30.9 µM; in [6] it was 11.6 µM. Moreover, the GI50 is 23.9 µM in [7], 54.8 µM in test [8], 12.3 µM in test [9] and 8.55 µM in test [10]. Moreover, the TGI in test [1] is 89.2 µM; in test [2], over 100 µM; in test [3], 72.1 µM; in test [4], over 100 µM; in test [5], over 100 µM; in test [6] it was 45.9 µM. Also, the TGI in [7], in test [8], in [9] and in test [10] was over 100 µM throughout.

On to `NNc1nc2ccccc2o1`, for which the TGI in test [1], in test [2], in test [3], in [4], in test [6] and in test [7] was over 100 µM each time. The TGI in [8], in test [9] and in test [10] was over 100 µM in each case.

Take `C=CCOc1ccc(N)c([N+](=O)[O-])c1`: the TGI in test [1], in [2], in test [3], in [4], in [6] and in [7] was over 100 µM in each case. Also, the TGI in test [8], in test [9] and in [10] was over 100 µM each time.

For the molecule `COc1ccc(-c2cc(-c3ccc(OC)cc3)nc(NCCCNc3ccnc4cc(Cl)ccc34)n2)cc1`, the GI50 in [1] was 1.78 µM; in test [2] it was 1.79 µM; in test [3], 1.76 µM; in [4], 1.92 µM; in test [5], 1.7 µM; in [6], 11.8 µM. The GI50 is 1.66 µM in [7], 1.96 µM in test [8], 2.76 µM in test [9] and 1.32 µM in test [10]. The TGI in [1] was found to be 3.28 µM; in test [2], 3.25 µM; in test [3], 3.26 µM; in test [4] it was 3.81 µM; in [5], 3.14 µM; in test [6], 24.5 µM. Moreover, the TGI was 3.9 µM in test [7], 3.83 µM in test [8], 7.26 µM in [9] and 2.6 µM in [10].

Turning to `Fc1ccc(-c2ncn(CCCN3CCOCC3)c2-c2ccncc2)cc1`, the GI50 in test [1], in test [2], in test [3], in test [4], in [5] and in [6] was over 25 µM throughout. Further, the GI50 in test [7], in [8], in test [9] and in test [10] was over 25 µM throughout. Moreover, the TGI in test [1], in test [2], in test [3], in [4], in test [5] and in test [6] was over 25 µM each time. For the same molecule, the TGI in test [7], in test [8], in test [9] and in test [10] was over 25 µM in each case.

With `Cc1ccc(-c2nc(/C=N/Nc3cc(C)nc4ccc(Br)cc34)c(C)o2)cc1`, the GI50 in [1] is 1.89 µM; in test [2] it was 1.88 µM; in test [3], 2.05 µM; in test [4], 1.94 µM; in test [5], 1.88 µM; in test [6], 1.74 µM. The GI50 in [7] is 1.94 µM; in test [8], 2.13 µM; in [9], 1.73 µM; in test [10], 1.65 µM. The TGI in [1] worked out at 3.6 µM; in [2] it was 3.57 µM; in [3], 3.62 µM; in test [4], 4.13 µM; in test [5], 3.36 µM; in test [6], 3.39 µM. Further, the TGI in test [7] came to 3.94 µM; in [8], 5.02 µM; in test [9] it was 3.36 µM; in [10], 3.08 µM.
